# Values of other authors as cited in patent US20240335390A9, “PHARMACEUTICAL COMPOSITIONS OF AMORPHOUS SOLID DISPERSIONS AND METHODS OF PREPARATION THEREOF” (Shenzhen Pharmacin Co., Ltd., priority 2020, published 2024).
# Read-outs that look alike come from different tables or passages of the source.
# Assays:
# [1] = cited from earlier work
# AKT signaling pathway = settings: in vitro; cited from earlier work
# EGFR autophosphorylation = settings: in vitro; cited from earlier work
# [2] = system: EGFR and/or HER2 expressing carcinoma cell lines; settings: in vitro; cited from earlier work
# HER2 autophosphorylation = settings: in vitro; cited from earlier work
# MAPK signaling pathway = settings: in vitro; cited from earlier work
# [3] = second value listed in the cell
compound,measurement,setting,value
O=C(O)Cc1ccccc1Nc1c(Cl)cccc1Cl [Diclofenac],Measured or Calculated pKas,[1]; first value listed in the cell,4.16
CC(C)NCC(O)COc1cccc2ccccc12 (stereo not shown) [Propranolol],Measured or Calculated pKas,[1]; first value listed in the cell,9.49 ± 0.2
CC1(C)S[C@@H]2[C@H](NC(=O)[C@H](N)c3ccc(O)cc3)C(=O)N2[C@H]1C(=O)O [Amoxicillin],Measured or Calculated pKas,[1]; first value listed in the cell,3.39
same,Measured or Calculated pKas,[1]; [3],6.71
Tylosin,Measured or Calculated pKas,[1]; first value listed in the cell,3.31 ± 0.30
same,Measured or Calculated pKas,[1]; [3],7.50 ± 0.13
COc1ccc2[nH]c([S+]([O-])Cc3ncc(C)c(OC)c3C)nc2c1 (stereo not shown) [Omeprazole],Measured or Calculated pKas,[1]; first value listed in the cell,4.14
same,Measured or Calculated pKas,[1]; [3],8.90
CN1CCN(c2cc3c(cc2F)c(=O)c(C(=O)O)cn3-c2ccc(F)cc2)CC1 [Difloxacin],Measured or Calculated pKas,[1]; first value listed in the cell,5.66 ± 0.04
same,Measured or Calculated pKas,[1]; [3],7.24 ± 0.06
CC(C(=O)O)c1ccc2c(c1)[nH]c1ccc(Cl)cc12 (stereo not shown) [Carprofen],Measured or Calculated pKas,[1]; first value listed in the cell,4.63
CCn1cc(C(=O)O)c(=O)c2cnc(N3CCNCC3)nc21 [Pipemidic acid],Measured or Calculated pKas,[1]; first value listed in the cell,5.42 ± 0.05
same,Measured or Calculated pKas,[1]; [3],8.18 ± 0.09
CC[C@H]1OC(=O)[C@H](C)[C@@H](OC2C[C@@](C)(OC)C(O)C(C)O2)[C@H](C)[C@@H](O[C@@H]2OC(C)CC(N(C)C)C2O)[C@](C)(O)C[C@@H](C)/C(=N\OCOCCOC)[C@H](C)[C@@H](O)[C@]1(C)O (stereo partly shown) [Roxithromycin],Measured or Calculated pKas,[1]; first value listed in the cell,9.17 ± 0.30
Fenbufen,Measured or Calculated pKas,[1]; first value listed in the cell,4.56
CC(=O)NS(=O)(=O)c1ccc(N)cc1 [Sulfacetamide],Measured or Calculated pKas,[1]; first value listed in the cell,1.95 ± 0.11
same,Measured or Calculated pKas,[1]; [3],5.30 ± 0.05
C=CCOc1ccccc1OCC(O)CNC(C)C (stereo not shown) [Oxprenolol],Measured or Calculated pKas,[1]; first value listed in the cell,9.62
CC(C)Cc1ccc(C(C)C(=O)O)cc1 (stereo not shown) [Ibuprofen],Measured or Calculated pKas,[1]; first value listed in the cell,4.51
C[C@H]1c2cccc(O)c2C(=O)C2=C(O)[C@]3(O)C(=O)C(C(N)=O)=C(O)[C@@H](N(C)C)[C@@H]3[C@@H](O)[C@@H]21 [Doxycycline],Measured or Calculated pKas,[1]; first value listed in the cell,3.02 ± 0.30
same,Measured or Calculated pKas,[1]; [3],7.97 ± 0.15
Cc1nc(NC(=O)N2CCC[C@H]2C(N)=O)sc1-c1ccnc(C(C)(C)C(F)(F)F)c1 [Alpelisib],Measured or Calculated pKas,[1]; first value listed in the cell,3.3
same,Measured or Calculated pKas,[1]; [3],9.4
O=C(O)c1cn(-c2ccc(F)cc2)c2cc(N3CCNCC3)c(F)cc2c1=O [Sarafloxacin],Measured or Calculated pKas,[1]; first value listed in the cell,5.62 ± 0.08
same,Measured or Calculated pKas,[1]; [3],8.18 ± 0.09
Nc1ccc(S(=O)(=O)Nc2ncccn2)cc1 [Sulfadiazine],Measured or Calculated pKas,[1]; first value listed in the cell,2.10
same,Measured or Calculated pKas,[1]; [3],6.28
CN1C[C@@H]2C[C@H]1CN2c1cc2c(cc1F)c(=O)c(C(=O)O)cn2C1CC1 [Danofloxacin],Measured or Calculated pKas,[1]; first value listed in the cell,6.07 ± 0.06
same,Measured or Calculated pKas,[1]; [3],8.56 ± 0.07
CC(C)(C)NC[C@H](O)COc1nsnc1N1CCOCC1 [Timolol],Measured or Calculated pKas,[1]; first value listed in the cell,9.34
Cn1cc(-c2cc3c(N4CCN(c5ncc([C@@](C)(N)c6ccc(F)cc6)cn5)CC4)ncnn3c2)cn1 [Avapritinib],Measured or Calculated pKas,[1]; first value listed in the cell,6.97
same,Measured or Calculated pKas,[1]; fourth value listed in the cell,1.51
same,Measured or Calculated pKas,[1]; [3],4.57
same,Measured or Calculated pKas,[1]; third value listed in the cell,3.50
Cc1ccc(Nc2nccc(N(C)c3ccc4c(C)n(C)nc4c3)n2)cc1S(N)(=O)=O.Cl [Pazopanib HCL],Measured or Calculated pKas,[1]; first value listed in the cell,2.1
same,Measured or Calculated pKas,[1]; [3],6.4
same,Measured or Calculated pKas,[1]; third value listed in the cell,10.2
CC(O)c1cc(C(=O)N[C@@H](C)Cn2ccc(-c3ccc(C#N)c(Cl)c3)n2)[nH]n1 (stereo partly shown) [Darolutamide],Measured or Calculated pKas,[1]; first value listed in the cell,11.75
CCN(CC)CCOC(=O)c1ccc(N)cc1 [Procaine],Measured or Calculated pKas,[1]; first value listed in the cell,2.28 ± 0.08
same,Measured or Calculated pKas,[1]; [3],9.02 ± 0.01
Cc1cc(C)nc(NS(=O)(=O)c2ccc(N)cc2)n1 [Sulfamethazine],Measured or Calculated pKas,[1]; first value listed in the cell,2.28
same,Measured or Calculated pKas,[1]; [3],7.42
C=C1c2c(Cl)ccc(O)c2C(=O)C2=C(O)[C@]3(O)C(=O)C(C(N)=O)=C(O)[C@@H](N(C)C)[C@@H]3[C@@H](O)[C@H]12 [Meclocycline],Measured or Calculated pKas,[1]; first value listed in the cell,4.05 ± 0.30
same,Measured or Calculated pKas,[1]; [3],6.87 ± 0.39
Cc1ccnc(NS(=O)(=O)c2ccc(N)cc2)n1 [Sulfamerazine],Measured or Calculated pKas,[1]; first value listed in the cell,2.17
same,Measured or Calculated pKas,[1]; [3],6.77
CC(=O)Nc1ccc(OCC(O)CNC(C)C)cc1 (stereo not shown) [Practolol],Measured or Calculated pKas,[1]; first value listed in the cell,9.41
CN1CCN(c2c(F)cc3c(=O)c(C(=O)O)cn(CCF)c3c2F)CC1 [Fleroxacin],Measured or Calculated pKas,[1]; first value listed in the cell,5.46
same,Measured or Calculated pKas,[1]; [3],8.00
CCn1cc(C(=O)O)c(=O)c2cc(F)c(N3CCNCC3)nc21 [Enoxacin],Measured or Calculated pKas,[1]; first value listed in the cell,5.05 ± 0.08
same,Measured or Calculated pKas,[1]; [3],6.25 ± 0.05
CC[C@H]1OC(=O)[C@H](C)[C@@H](O[C@H]2C[C@@](C)(OC)[C@@H](O)[C@H](C)O2)[C@H](C)[C@@H](O[C@@H]2O[C@H](C)C[C@H](N(C)C)[C@H]2O)[C@](C)(OC)C[C@@H](C)C(=O)[C@H](C)[C@@H](O)[C@]1(C)O [Clarithromycin],Measured or Calculated pKas,[1]; first value listed in the cell,7.25
C#Cc1cccc(Nc2ncnc3cc(OCCOC)c(OCCOC)cc23)c1.Cl [Erlotinib],Measured or Calculated pKas,[1]; first value listed in the cell,5.4
CN(C)[C@@H]1C(O)=C(C(N)=O)C(=O)[C@@]2(O)C(O)=C3C(=O)c4c(O)ccc(Cl)c4[C@@](C)(O)[C@H]3C[C@@H]12 [Chlortetracycline],Measured or Calculated pKas,[1]; first value listed in the cell,3.33 ± 0.30
same,Measured or Calculated pKas,[1]; [3],7.55 ± 0.02
CN(C)[C@@H]1C(O)=C(C(N)=O)C(=O)[C@@]2(O)C(O)=C3C(=O)c4c(O)ccc(Cl)c4[C@@H](O)[C@H]3C[C@@H]12 [Demeclocycline],Measured or Calculated pKas,[1]; first value listed in the cell,3.37 ± 0.30
same,Measured or Calculated pKas,[1]; [3],7.36 ± 0.03
CCN1CCN(c2cc3c(cc2F)c(=O)c(C(=O)O)cn3C2CC2)CC1 [Enrofloxacin],Measured or Calculated pKas,[1]; first value listed in the cell,5.88 ± 0.03
same,Measured or Calculated pKas,[1]; [3],7.74 ± 0.03
"CCOc1cc2ncc(C#N)c(Nc3ccc(OCc4ccccn4)c(Cl)c3)c2cc1NC(=O)/C=C/CN(C)C [Neratinib, neratinib]",downstream AKT signaling pathway,AKT signaling pathway,reduces
same,EGFR autophosphorylation,EGFR autophosphorylation,reduces
same,antitumor activity in carcinoma cell lines,[2],showed antitumor activity
same,HER2 autophosphorylation,HER2 autophosphorylation,reduces
same,downstream MAPK signaling pathway,MAPK signaling pathway,reduces
CN(C)[C@@H]1C(O)=C(C(N)=O)C(=O)[C@@]2(O)C(O)=C3C(=O)c4c(O)cccc4[C@@](C)(O)[C@H]3[C@H](O)[C@@H]12 [Oxytetracycline],Measured or Calculated pKas,[1]; first value listed in the cell,3.04
same,Measured or Calculated pKas,[1]; [3],8.00
COc1cc2ncnc(Nc3ccc(F)c(Cl)c3)c2cc1OCCCN1CCOCC1 [Gefitinib],Measured or Calculated pKas,[1]; first value listed in the cell,7.2
COc1cc(Cc2cnc(N)nc2N)cc(OC)c1OC [Trimethoprim],Measured or Calculated pKas,[1]; first value listed in the cell,3.23 ± 0.30
same,Measured or Calculated pKas,[1]; [3],6.76 ± 0.12
CC(CCc1ccccc1)NCC(O)c1ccc(O)c(C(N)=O)c1 (stereo not shown) [Labetalol],Measured or Calculated pKas,[1]; first value listed in the cell,7.35
CC1COc2c(N3CCN(C)CC3)c(F)cc3c(=O)c(C(=O)O)cn1c23 (stereo not shown) [Ofloxacin],Measured or Calculated pKas,[1]; first value listed in the cell,6.22 ± 0.05
same,Measured or Calculated pKas,[1]; [3],7.81 ± 0.08
Nc1ccc(S(=O)(=O)Nc2nccs2)cc1 [Sulfathiazole],Measured or Calculated pKas,[1]; first value listed in the cell,2.08
same,Measured or Calculated pKas,[1]; [3],7.07
CN1CCN(c2c(F)cc3c(=O)c(C(=O)O)cn4c3c2OCN4C)CC1 [Marbofloxacin],Measured or Calculated pKas,[1]; first value listed in the cell,5.69 ± 0.10
same,Measured or Calculated pKas,[1]; [3],8.02 ± 0.20
Nc1ccc(S(=O)(=O)Nc2ccc(Cl)nn2)cc1 [Sulfachlorpyridazine],Measured or Calculated pKas,[1]; first value listed in the cell,1.87 ± 0.30
same,Measured or Calculated pKas,[1]; [3],5.45 ± 0.06
CC(C(=O)O)c1ccc(-c2ccccc2)c(F)c1 (stereo not shown) [Flurbiprofen],Measured or Calculated pKas,[1]; first value listed in the cell,4.35
Cc1nnc(NS(=O)(=O)c2ccc(N)cc2)s1 [Sulfamethizole],Measured or Calculated pKas,[1]; first value listed in the cell,1.86 ± 0.30
same,Measured or Calculated pKas,[1]; [3],5.29 ± 0.04
CNC(=O)c1ccc(N2C(=S)N(c3ccc(C#N)c(C(F)(F)F)c3)C(=O)C2(C)C)cc1F [Enzalutamide],Measured or Calculated pKas,[1]; first value listed in the cell,3-11
[H]/N=C(/N)NS(=O)(=O)c1ccc(N)cc1 [Sulfaguanidine],Measured or Calculated pKas,[1]; first value listed in the cell,1.55
same,Measured or Calculated pKas,[1]; [3],11.24
CCC(C(=O)O)c1ccc(CC(C)C)cc1 (stereo not shown) [Butibufen],Measured or Calculated pKas,[1]; first value listed in the cell,4.64
